The values that follow come from patent US6342765B1, “Imidazole derivatives and their use as farnesyl protein transferase inhibitors” (AstraZeneca UK Limited, priority 1997, dated 2002).

The target in data set [1] is T1, Farnesyl protein transferase (FPT) (Homo sapiens, UniProt P49354+P49356).
T1 construct: partially purified from human placenta; from tissue; host or cells: human placenta
Kind of data set: In-vitro farnesyl protein transferase assay (farnesylation of Ki-ras with radiolabelled farnesyl pyrophosphate). The following applies: read-out: IC50 in the above test. Type of data set: biochemical. Here is the method: The following stock solutions were used and the assays were conducted in 96 well plates: TRIS Buffer (500 mM TRIS, 50 mM MgCl2.6H2O, pH=8.0); Farnesyl pyrophosphate (6.4 mg/ml); Aprotinin (1.9 mg/ml); Ki-ras (0.5 mg/ml, stored at −80° C.); Acid ethanol (850 ml absolute ethanol+150 ml concentrated HCl).
Farnesyl protein transferase (FPT) was partially purified from human placenta by t ammonium sulphate fractionation followed by a single Q-Sepharose™ (Pharmacia, Inc) anion exchange chromatography essentially as described by Ray and Lopez-Belmonte (Ray K P and Lopez-Belmonte J (1992) Biochemical Society Transactions 20 494-497). The substrate for FPT was Kras (CVIM C-terminal sequence). The cDNA for oncogenic val12 variant of human c-Ki-ras-2 4B was obtained from the plasmid pSW11-1 (ATCC). This was then subcloned into the polylinker of a suitable expression vector e.g. pIC147. The Kras was obtained after expression in the E. coli strain, BL21. […]
Assays were performed in 96 well plates as follows: 10 μl of test compound solution was added to each well. […] Precipitated protein was then collected onto glass fibre filter mats (B) using a Tomtec™ cell harvester and tritiated label was measured in a Wallac™1204 Betaplate scintillation counter. […]

Take `CSCC[C@H](NC(=O)c1ccc(COC(Cn2ccnc2)c2ccc(F)cc2)cc1-c1ccc(F)cc1)C(=O)O` (stereo partly drawn) [Example 2, (2S)-2-{2-(4-fluorophenyl)-4-[2-(imidazol-1-yl)-1-(4-fluorophenyl)ethoxymethyl]benzoylamino]-4-methylsulfanylbutyric acid]: the IC50 in data set [1] was about 1 nM. For the molecule `CSCC[C@H](NC(=O)c1ccc(COC(Cn2ccnc2)c2nccs2)cc1-c1ccc(F)cc1)C(=O)OC(C)(C)C` (stereo partly drawn) [Example 16, Tert-butyl (2S)-2-{2-(4-fluorophenyl)-4-[1-(thiazol-2-yl)-2-(imidazol-1-yl)ethoxymethyl]benzoylamino}-4-methylsulfanylbutyrate], the melting point lay in the range of 50 to 53 °C.
